Laboratory results reported in patent publication EP4635490A1, “PM20D1-DERIVED N-OLEOYL-L-LEUCINE FOR THE TREATMENT AND PREVENTION OF NEURODEGENERATIVE DISEASES” (Consejo Superior De Investigaciones Científicas, priority 2024, dated 2025).

Legend:
[1] = system: APP/PS1-derived hippocampal neuronal cultures; test: ELISA of Aβ production in primary hippocampal neuronal cultures; assay type: cell-based, mice; conditions: 200nM C18:1-Leu, 24h vs vehicle; n=5, p=0.0093
Method: (§1) • Fig. 1. C18:1-Leu treatment in neuronal cultures. a, Enzyme-linked immunosorbent assays (ELISA) of APP/PS1-derived hippocampal neuronal cultures treated during 24h with 200nM C18:1-Leu. n=5 per group, p=0.0093; one-sided Student's t-test. b, Lactate dehydrogenase (LDH) release viability assay of APP/PS1-derived hippocampal neuronal cultures treated during 16h with 150µM H2O2 and 200nM C18:1-Leu. ROS, reactive oxygen species. n=10 per group, p=0.0048; one-sided Student's t-test. b, AlamarBlue cell viability assay of SH-SY5Y cells treated during 24h with 10µM thapsigargin and 200nM C18:1 -Leu. UPS, unfolded-protein stress. n=5 per group, p=0.0084; one-sided Student's t-test. Single values (experiments) are represented by dots. *p<0.05, and **p<0.01. • Fig. 2. […] AD pathologies and phenotypes in APP/PS1 mice. a, Methoxy-X04 (MX04) IHC amyloid burden (area) quantification. n=8 per group, p=0.0283; one-sided Student's t-test. b, Novel object recognition (NOR) performance of vehicle and C18:1-Leu treated APP/PS1 mice. […]

[2] = system: APP/PS1-derived hippocampal neuronal cultures; test: LDH release viability assay under H2O2 (ROS) stress; assay type: cell-based, mice; conditions: 200nM C18:1-Leu, 16h with 150µM H2O2 (Fig. 1b legend); n=10, p=0.0048
Method: as §1

[3] = system: SH-SY5Y cells; test: AlamarBlue cell viability assay under thapsigargin (unfolded-protein stress); assay type: cell-based, human; conditions: 200nM C18:1-Leu, 24h with 10µM thapsigargin; n=5, p=0.0084
Method: as §1

[4] = system: GMC101 worms; test: Mobility phenotyping of GMC101 worms (AD model); assay type: in vivo, C. elegans; conditions: 200 µM C18:1-Leu, first 3 days of adulthood, vs vehicle
Method: as §1

[5] = system: GMC101 worms; test: Amyloid aggregation in GMC101 worms (western blot); assay type: in vivo, C. elegans; conditions: 200 µM C18:1-Leu, GMC101 worms at day 1, vs vehicle; p=0.0108
Method: as §1

[6] = system: APP/PS1 mice; test: Immunohistochemistry of brain sections of treated APP/PS1 mice (amyloid plaques, microglia, neuronal damage); assay type: in vivo
Method: • Fig. 1. C18:1-Leu treatment in neuronal cultures. a, Enzyme-linked immunosorbent assays (ELISA) of APP/PS1-derived hippocampal neuronal cultures treated during 24h with 200nM C18:1-Leu. n=5 per group, p=0.0093; one-sided Student's t-test. b, Lactate dehydrogenase (LDH) release viability assay of APP/PS1-derived hippocampal neuronal cultures treated during 16h with 150µM H2O2 and 200nM C18:1-Leu. ROS, reactive oxygen species. n=10 per group, p=0.0048; one-sided Student's t-test. b, AlamarBlue cell viability assay of SH-SY5Y cells treated during 24h with 10µM thapsigargin and 200nM C18:1 -Leu. UPS, unfolded-protein stress. n=5 per group, p=0.0084; one-sided Student's t-test. Single values (experiments) are represented by dots. *p<0.05, and **p<0.01. • Fig. 2. AD pathologies and phenotypes in GMC101 worms. a, Mobility assessment in vehicle and C18:1-Leu treated GMC101 worms during the 3 first days of adulthood. a.u., arbitrary units. n=75-100 worms per time, p=0.0001 and p=0.0152 for day 2 and 3, respectively; one-sided Student's t-test. b, Pumping per minute in vehicle and C18:1-Leu treated GMC101 worms at day 3. n=7 per group, p=0.0162; one-sided t-test. c, Relative amyloid aggregation in vehicle and C18:1-Leu treated GMC101 worms at day 1. n=6 experiments of -1000 worms each, pval=0.0108; one-sided Student's t-test. Single values (animals) are represented by dots. *p<0.05, and ***p<0.001. • Fig. 3. AD pathologies and phenotypes in APP/PS1 mice. a, Methoxy-X04 (MX04) IHC amyloid burden (area) quantification. n=8 per group, p=0.0283; one-sided Student's t-test. b, Novel object recognition (NOR) performance of vehicle and C18:1-Leu treated APP/PS1 mice. C18:1-Leu was provided from 15 to 18 months (m) of age. n=11-15 per group, p=0.0312. Single values (animals) are represented by dots. *p<0.05, **p<0.01, and ***p<0.001. • Fig. 4. Microglia analysis in C18:1-Leu treated APP/PS1 mice. a, Quantification of Ionized calcium-binding adaptor molecule 1 (IBA1, microglia) area within methoxy-X04 (MX04, amyloid plaques) region of interest (ROI). n=6-7 per group, p=0.0051; one-sided Student's t-test. b, Amyloid plaque number quantification. n=8 per group, p=0.0444; one-sided Student's t-test. c, Percentage of amyloid halo (diffuse, toxic) area over plaque dense core. n=8 per group, p=0.0389; one-sided Student's t-test. d, Percentage of the Lysosome-associated protein 1 (LAMP1, neuronal damage) area over to plaque dense core. n=8-9 per group, p=0.0132; one-sided Student's t-test. Single values (animals) are represented by dots. *p<0.05, and **p<0.01. • Fig. 5. C18:1-Leu treatment in microglia cultures. a, Transwell assay of APP/PS1-derived primary microglia treated during 24h with 200nM C18:1-Leu. n=6 per group, p=0.0007; one-sided Student's t-test. b, Amyloid-beta 40 (Aβ40) ELISA assays of APP/PS1-derived primary microglia cultures after 24h of 200nM C18:1-Leu treatment in presence of amyloid-beta (Aβ). n=5 per group, p=0.0201; one-sided Student's t-test. Single values (experiments) are represented by dots. *p<0.05, **p<0.01, and ***p<0.001. • Fig. 6. RNA expression signatures in human samples I. C18:1-Leu score according to PM20D1 haplotype in Alzheimer's disease (AD) and control postmortem brain samples. a, n=387 control and n=511 AD samples, Wilcoxon test, ****p<0.0001 • Fig. 7. RNA expression signatures in human samples II. Correlation between PIG and C18:1-Leu scores in AD samples. n=511 AD samples, Spearman correlation. • Fig. 8. […]

[7] = system: APP/PS1 mice; test: Novel object recognition test in APP/PS1 mice; assay type: in vivo; conditions: 25 mg/kg/day p.o. during three months, starting at 15 months-of-age; n=11-15, p=0.0312
Method: as §1

[8] = system: APP/PS1-derived primary microglia; test: Transwell migration assay (Aβ chemotaxis) of primary microglia; assay type: cell-based, mice; conditions: 200nM C18:1-Leu, 24h, conditioned Aβ media in lower chamber; n=6, p=0.0007
Method: as §1

[9] = system: APP/PS1-derived primary microglia; test: Aβ clearance by primary microglia, Amyloid beta 40 ELISA; assay type: cell-based, mice; conditions: 200nM C18:1-Leu, 24h in presence of Aβ; n=5, p=0.0201
Method: as §1

CCCCCCCC/C=C\CCCCCCCC(=O)N[C@@H](CC(C)C)C(=O)O [C18:1-Leu, N-oleoyl-L-Leucine]
Aβ production [1]: reduces Aβ production in neuronal cells
neuroprotection against ROS (cell viability, LDH release) [2]: increases neuroprotection against ROS
neuroprotection against UPS stress (cell viability, AlamarBlue) [3]: increases neuroprotection
AD-like phenotypes - spontaneous and induced mobility [4]: significantly improves
amyloid pathologies (relative amyloid aggregation) [5]: significantly improves
amyloid burden (Methoxy-X04 IHC area) ([6]; 25 mg/kg/day p.o. during three months, starting at 15 months-of-age, n=8, p=0.0283): improves amyloid burden
microglia association with amyloid plaques (relative MX04 area occupied by IBA1) ([6]; C18:1-Leu treated APP/PS1 mice vs vehicle, n=6-7, p=0.0051): increased microglia association
relative size of the diffuse halo of the plaques ([6]; C18:1-Leu treated APP/PS1 mice vs vehicle, n=8, p=0.0389): reduced
number of amyloid plaques ([6]; C18:1-Leu treated APP/PS1 mice vs vehicle, n=8, p=0.0444): reduced
LAMP1 area (neuronal damage) over plaque dense core ([6]; C18:1-Leu treated APP/PS1 mice vs vehicle, n=8-9, p=0.0132): stronger LAMP1 area reduction
cognitive deficits (novel object recognition test) [7]: improves
Aβ chemotaxis (migrated microglia) [8]: increased Aβ chemotaxis
Aβ clearance (remaining Aβ40 in media) [9]: increases Aβ clearance
